Experiments:
Test in all cases: relative viability (nuclei count vs DMSO), 5 days (fraction); higher = more cells survive
[1] = compound: COc1cc2c(Oc3ccc4[nH]c(C)cc4c3F)ncnc2cc1OCCCN1CCCC1 [Cediranib] + Cc1nc(Nc2ncc(C(=O)Nc3c(C)cccc3Cl)s2)cc(N2CCN(CCO)CC2)n1 [Dasatinib] (partner 0.075 µM)
Summary of the method: (§1)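 Lung cancer cell lines in 1536-well plates were dosed by pin tool the day after seeding, either with one drug alone or with a fixed anchor-drug dose plus five library-drug doses (not always all listed) in √10 steps. After 5 days, cells were fixed and their nuclei stained in one step (final 0.05% Triton X-100, 1% formaldehyde, 1 ug/ml Hoechst), then counted on 4× images. Relative viability is the nuclei count in treated wells divided by that in vehicle wells. Values are medians of duplicate plates.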

[2] = compound: COc1cc2c(Oc3ccc4[nH]c(C)cc4c3F)ncnc2cc1OCCCN1CCCC1 [Cediranib] + O=C(CCCCCCC(=O)Nc1ccccc1)NO [Vorinostat] (partner 1 µM)
Summary of the method: as §1

[3] = compound: Nc1ncn([C@H]2C[C@H](O)[C@@H](CO)O2)c(=O)n1 [Decitabine] + Nc1nc2[nH]cc(CCc3ccc(C(=O)N[C@@H](CCC(=O)O)C(=O)O)cc3)c2c(=O)[nH]1 [Pemetrexed] (partner 0.2 µM)
Summary of the method: as §1

[4] = compound: Nc1ncn([C@H]2C[C@H](O)[C@@H](CO)O2)c(=O)n1 [Decitabine] + CCNC(=O)c1noc(-c2cc(C(C)C)c(O)cc2O)c1-c1ccc(CN2CCOCC2)cc1 [Luminespib] (partner 0.01 µM)
Summary of the method: as §1

Cell Line	relative viability ([1]; first compound 0.04 µM)	relative viability ([1]; first compound 0.1265 µM)	relative viability ([1]; first compound 0.4 µM)	relative viability ([1]; first compound 1.265 µM)	relative viability ([1]; first compound 4 µM)	relative viability ([2]; first compound 0.04 µM)	relative viability ([2]; first compound 0.4 µM)	relative viability ([2]; first compound 1.265 µM)	relative viability ([2]; first compound 4 µM)	relative viability ([3]; first compound 0.04 µM)	relative viability ([3]; first compound 0.1265 µM)	relative viability ([3]; first compound 0.4 µM)	relative viability ([3]; first compound 1.265 µM)	relative viability ([3]; first compound 4 µM)	relative viability ([4]; first compound 0.04 µM)	relative viability ([4]; first compound 0.1265 µM)	relative viability ([4]; first compound 0.4 µM)	relative viability ([4]; first compound 1.265 µM)	relative viability ([4]; first compound 4 µM)	relative viability ([2]; first compound 0.1265 µM)
LXF-289	0.252	0.3	0.192	0.3	0.236	0.754	0.724	0.812	0.787	0.69	0.541	0.423	0.315	0.297	0.418	0.313	0.261	0.222	0.196	–
NCI-H23	0.729	–	0.7	0.375	1.07	0.545	0.532	0.587	0.789	0.572	0.546	0.322	0.294	0.272	0.215	0.213	0.202	0.199	0.203	0.487
NCI-H322M	0.239	0.277	0.247	0.258	0.255	0.876	0.818	0.983	0.871	0.549	0.602	0.534	0.709	0.53	0.77	0.835	0.669	0.441	0.489	1.05
NCI-H358	0.174	0.239	0.194	0.137	0.173	0.689	0.638	0.705	0.648	0.152	0.168	0.129	0.131	0.161	0.073	0.206	0.247	0.199	0.1	1.05
NCI-H441	0.466	–	0.678	0.559	0.772	0.864	0.767	0.824	0.909	0.214	0.203	0.184	0.197	0.235	0.271	0.371	0.337	0.293	0.256	0.825
NCI-H460	0.51	0.634	0.466	0.459	0.562	0.795	0.661	0.678	0.822	0.0582	0.0551	0.0502	0.0449	0.0449	0.0345	0.0356	0.0279	0.034	0.0328	0.792
NCI-H520	0.264	0.238	0.162	0.155	0.174	0.792	0.581	0.576	0.676	0.545	0.468	0.477	0.317	0.293	0.212	0.214	0.214	0.254	0.239	0.622
NCI-H522	0.827	0.77	0.85	0.965	0.811	0.842	0.925	0.817	0.811	0.979	0.839	0.677	0.705	0.505	1.07	0.919	0.923	0.652	0.684	0.472
NCI-H596	0.67	0.616	0.548	–	0.618	0.584	0.585	0.682	0.836	0.582	0.456	0.338	0.44	0.484	0.9	1.01	–	0.696	0.739	0.488
